# Measurements as given in patent US7094895B2, “Tyrosyl derivatives and their use as P2X7 receptor modulators” (King Pharmaceuticals Research & Development, Inc., priority 2001, dated 2006).
# Biological target: T1, P2X7 receptor (Homo sapiens, UniProt Q99572)
# T1 sequence (Q99572 1-595): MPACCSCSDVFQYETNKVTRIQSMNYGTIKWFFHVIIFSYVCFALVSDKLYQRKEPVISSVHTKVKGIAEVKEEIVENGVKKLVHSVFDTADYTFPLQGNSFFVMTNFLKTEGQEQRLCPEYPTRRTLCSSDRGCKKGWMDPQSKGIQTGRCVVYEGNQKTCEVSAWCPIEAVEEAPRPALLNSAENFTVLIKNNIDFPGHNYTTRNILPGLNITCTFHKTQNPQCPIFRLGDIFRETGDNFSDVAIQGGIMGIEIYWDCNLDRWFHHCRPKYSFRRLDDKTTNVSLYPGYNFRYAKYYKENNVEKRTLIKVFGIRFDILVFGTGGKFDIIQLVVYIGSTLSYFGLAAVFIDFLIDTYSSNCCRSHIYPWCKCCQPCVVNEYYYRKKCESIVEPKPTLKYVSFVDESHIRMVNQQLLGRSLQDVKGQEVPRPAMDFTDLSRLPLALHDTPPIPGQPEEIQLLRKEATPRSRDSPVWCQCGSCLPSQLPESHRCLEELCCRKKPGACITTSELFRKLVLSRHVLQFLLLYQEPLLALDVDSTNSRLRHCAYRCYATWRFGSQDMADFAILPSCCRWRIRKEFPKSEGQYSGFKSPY
# Assay: Inhibition of ATP-induced calcium influx in human monocytes (fura-2/AM)
# Format: cell-based
# Parameters: endogenous in cells; host or cells: human monocytes
# Conditions: inhibiting calcium influx in human monocytes in the presence of 1 mM ATP; read-out: P2X7 Antagonist Activity IC50
# Protocol: Table 1 illustrates the IC50 values for compounds toward inhibiting calcium influx in human monocytes in the presence of 1 mM ATP.
# Ca^2+ measurements. Changes in Ca^2+ were measured with the fluorescent indicator fura-2/AM (Molecular Probes, Inc., Eugene, Oreg.) as described previously.^32 Briefly, cells were loaded with […] of fura-2/AM and incubated in a thermostat-controlled (37° C.) and magnetically stirred fluorometer cuvette (model LS50, Perkin-Elmer Ltd., Beaconsfield, UK). Intracellular Ca^2+ concentration was determined with the 340/380 excitation ratio at an emission wavelength of 500 nm. All experiments were repeated three times.
row,Molecule,IC50
1,"1-[(S)-N,O-bis-(isoquinolinesulfonyl)-N-methyl-tyrosyl]-4-(2,3-dimethylphenyl)-piperazine",1.12 µM
2,"1-[(S)-N,O-bis-(isoquinolinesulfonyl)-N-methyl-tyrosyl]-4-(2-chlorophenyl)-piperazine",0.0158 µM
3,"1-[(S)-N,O-bis-(isoquinolinesulfonyl)-N-methyl-tyrosyl]-4-(2-methoxy-phenyl)-piperazine",0.0841 µM
4,"1-[(S)-N,O-bis-(isoquinolinesulfonyl)-N-methyl-tyrosyl]-4-(3,4-dichloro-phenyl)-piperazine",0.0339 µM
5,"1-[(S)-N,O-bis-(isoquinolinesulfonyl)-N-methyl-tyrosyl]-4-(3-chlorophenyl)-piperazine",0.0141 µM
6,"1-[(S)-N,O-bis-(isoquinolinesulfonyl)-N-methyl-tyrosyl]-4-(3-trifluoromethyl-phenyl)-piperazine",0.0312 µM
7,"1-[(S)-N,O-bis-(isoquinolinesulfonyl)-N-methyl-tyrosyl]-4-(4-aminophenyl)-piperazine",0.101 µM
8,"1-[(S)-N,O-bis-(isoquinolinesulfonyl)-N-methyl-tyrosyl]-4-(4-fluorophenyl)-piperazine",0.00133 µM
9,"1-[(S)-N,O-bis-(isoquinolinesulfonyl)-N-methyl-tyrosyl]-4-(4-methoxy-phenyl)-piperazine",0.132 µM
10,"1-[(S)-N,O-bis-(isoquinolinesulfonyl)-N-methyl-tyrosyl]-4-(4-nitrophenyl)-piperazine",0.00576 µM
11,"1-[(S)-N,O-bis-(isoquinolinesulfonyl)-N-methyl-tyrosyl]-4-(p-tolyl)-piperazine",0.0135 µM
12,"1-[(S)-N,O-bis-(isoquinolinesulfonyl)-N-methyl-tyrosyl]-4-(pyridin-2-yl)-piperazine",0.17 µM
13,"1-[(S)-N,O-bis-(isoquinolinesulfonyl)-N-methyl-tyrosyl]-4-(pyrimidin-2-yl)-piperazine",0.0798 µM
14,"1-[(S)-N,O-bis-(isoquinolinesulfonyl)-N-methyl-tyrosyl]-4-benzylpiperazine",0.021 µM
15,"1-[(S)-N,O-bis-(isoquinolinesulfonyl)-N-methyl-tyrosyl]-4-benzylpiperidine",0.0653 µM
16,"1-[(S)-N,O-bis-(isoquinolinesulfonyl)-N-methyl-tyrosyl]-4-o-tolyl-piperazine",0.0151 µM
17,"1-[(S)-N,O-bis-(isoquinolinesulfonyl)-N-methyl-tyrosyl]-4-phenethyl-piperazine",0.6 µM
18,"1-[(S)-N,O-bis-(isoquinolinesulfonyl)tyrosyl]-4-(4-fluorophenyl)-piperazine",0.00602 µM
19,"1-[(S)-N,O-bis-(isoquinolinesulfonyl)tyrosyl]-4-(o-tolyl)-piperazine",0.0288 µM
20,"Cc1ccccc1N1CCN(C(=O)[C@H](Cc2ccc(OS(=O)(=O)c3cccnc3)cc2)N(C)S(=O)(=O)c2cccnc2)CC1 [1-[(S)-N,O-bis-(3-pyridinesulfonyl)-N-methyl-tyrosyl]-4-(2-methylphenyl)-piperazine]",9.12 µM
21,"CN([C@@H](Cc1ccc(OS(=O)(=O)c2cccnc2)cc1)C(=O)N1CCN(c2ccccc2)CC1)S(=O)(=O)c1cccnc1 [1-[(S)-N,O-bis-(3-pyridinesulfonyl)-N-methyl-tyrosyl]-4-phenyl-piperazine]",0.955 µM
22,"CN([C@@H](Cc1ccc(OS(=O)(=O)c2cccc3cnccc23)cc1)C(=O)N1CCN(c2ccccc2F)CC1)S(=O)(=O)c1cccc2cnccc12 [1-[(S)-N,O-bis-(isoquinolinesulfonyl)-N-methyl-tyrosyl]-4-(2-fluorophenyl)-piperazine]]",0.0185 µM
23,"CC(=O)c1ccc(N2CCN(C(=O)[C@H](Cc3ccc(OS(=O)(=O)c4cccc5cnccc45)cc3)N(C)S(=O)(=O)c3cccc4cnccc34)CC2)cc1 [1-[(S)-N,O-bis-(isoquinolinesulfonyl)-N-methyl-tyrosyl]-4-(4-acetylphenyl)-piperazine]]",0.0708 µM
24,"CN([C@@H](Cc1ccc(OS(=O)(=O)c2cccc3cnccc23)cc1)C(=O)N1CCN(c2ccc(Cl)cc2)CC1)S(=O)(=O)c1cccc2cnccc12 [1-[(S)-N,O-bis-(isoquinolinesulfonyl)-N-methyl-tyrosyl]-4-(4-chlorophenyl)-piperazine]]",0.105 µM
25,"CN([C@@H](Cc1ccc(OS(=O)(=O)c2cccc3cnccc23)cc1)C(=O)N1CCN(c2ccc(C#N)cc2)CC1)S(=O)(=O)c1cccc2cnccc12 [1-[(S)-N,O-bis-(isoquinolinesulfonyl)-N-methyl-tyrosyl]-4-(4-cyanophenyl)-piperazine]]",0.0977 µM
26,"CN([C@@H](Cc1ccc(OS(=O)(=O)c2cccc3cnccc23)cc1)C(=O)N1CCN(C(=O)c2ccc(F)cc2)CC1)S(=O)(=O)c1cccc2cnccc12 [1-[(S)-N,O-bis-(isoquinolinesulfonyl)-N-methyl-tyrosyl]-4-(4-fluorobenzoyl)-piperazine]]",0.38 µM
27,"CN([C@@H](Cc1ccc(OS(=O)(=O)c2cccc3cnccc23)cc1)C(=O)N1CCN(Cc2ccc(F)cc2)CC1)S(=O)(=O)c1cccc2cnccc12 [1-[(S)-N,O-bis-(isoquinolinesulfonyl)-N-methyl-tyrosyl]-4-(4-fluorobenzyl)-piperazine]]",0.0058 µM
28,"CN([C@@H](Cc1ccc(OS(=O)(=O)c2cccc3cnccc23)cc1)C(=O)N1CCN(c2ccc(I)cc2)CC1)S(=O)(=O)c1cccc2cnccc12 [1-[(S)-N,O-bis-(isoquinolinesulfonyl)-N-methyl-tyrosyl]-4-(4-iodophenyl)-piperazine]]",0.176 µM
29,"CN([C@@H](Cc1ccc(OS(=O)(=O)c2cccc3cnccc23)cc1)C(=O)N1CCN(Cc2ccc([N+](=O)[O-])cc2)CC1)S(=O)(=O)c1cccc2cnccc12 [1-[(S)-N,O-bis-(isoquinolinesulfonyl)-N-methyl-tyrosyl]-4-(4-nitrobenzyl)-piperazine]]",0.0123 µM
30,"CN([C@@H](Cc1ccc(OS(=O)(=O)c2cccc3cnccc23)cc1)C(=O)N1CCN(c2ccccc2)CC1)S(=O)(=O)c1cccc2cnccc12 [KN62, 1-N,0-(bis(1,5-isoquinolinesulfonyl)-N-methyl-L-tyrosyl)-4-phenylpiperazine]",0.051 µM

# Tested on: Adriamycin-resistant cells (HL-60)
# Assay: not given
# Conditions: KN62 2 μM (non-cytotoxic), Adriamycin-resistant HL-60 cells; cited from earlier work
row,Molecule,enhancement of VP-16 induced topoisomerase II-mediated DNA cleavable complex formation
1,"CN([C@@H](Cc1ccc(OS(=O)(=O)c2cccc3cnccc23)cc1)C(=O)N1CCN(c2ccccc2)CC1)S(=O)(=O)c1cccc2cnccc12 [KN62, 1-N,0-(bis(1,5-isoquinolinesulfonyl)-N-methyl-L-tyrosyl)-4-phenylpiperazine]",2- to 4 fold

# Biological target: T1, P2X7 receptor
# Assay: not given
# Conditions: at the concentration of 500 nM; cited from earlier work
row,Molecule,inhibition of the P2X7 receptor
1,"CN([C@@H](Cc1ccc(OS(=O)(=O)c2cccc3cnccc23)cc1)C(=O)N1CCN(c2ccccc2)CC1)S(=O)(=O)c1cccc2cnccc12 [KN62, 1-N,0-(bis(1,5-isoquinolinesulfonyl)-N-methyl-L-tyrosyl)-4-phenylpiperazine]",complete inhibition
